Measurements reported in publication PMC10557616 (bioRxiv, 2023).

How the values were obtained:
Assay type in all cases: biochemical
Details in all cases: phosphocreatine as phosphate donor
[1] = biological target: T1, CKM (Homo sapiens, UniProt P06732); assay: uHPLC-MS detection of ATP
[2] = biological target: T2, creatine kinase U-type (CKMT1) (Homo sapiens, UniProt P12532); assay: uHPLC-MS detection of ATP
[3] = biological target: T1, CKM; assay: uHPLC-MS detection of TFV-DP
[4] = biological target: T2, creatine kinase U-type (CKMT1); assay: uHPLC-MS detection of TFV-DP

T1 sequence (P06732 whole entry): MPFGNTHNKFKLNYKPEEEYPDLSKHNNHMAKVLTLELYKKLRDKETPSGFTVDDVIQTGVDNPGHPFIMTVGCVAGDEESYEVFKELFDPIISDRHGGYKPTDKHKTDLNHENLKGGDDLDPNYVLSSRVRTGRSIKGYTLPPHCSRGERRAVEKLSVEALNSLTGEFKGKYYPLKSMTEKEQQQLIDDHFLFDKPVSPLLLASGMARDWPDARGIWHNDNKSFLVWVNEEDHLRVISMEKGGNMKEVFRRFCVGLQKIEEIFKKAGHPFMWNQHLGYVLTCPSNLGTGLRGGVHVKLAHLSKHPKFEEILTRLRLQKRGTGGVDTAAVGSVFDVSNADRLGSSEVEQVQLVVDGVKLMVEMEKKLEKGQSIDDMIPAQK

Row | Structure (SMILES) | uHPLC-MS detection of ATP [1] | uHPLC-MS detection of ATP [2] | uHPLC-MS detection of TFV-DP [3] | uHPLC-MS detection of TFV-DP [4]
1 | Nc1ncnc2c1ncn2[C@@H]1O[C@H](COP(=O)(O)OP(=O)(O)O)[C@@H](O)[C@H]1O [ADP] | the proteins were incubated with phosphocreatine and ADP and ATP was detected by uHPLC-MS | the proteins were incubated with phosphocreatine and ADP and ATP was detected by uHPLC-MS |  | 
2 | C[C@H](Cn1cnc2c(N)ncnc21)OCP(=O)(O)OP(=O)(O)O [TFV-MP] |  |  | no significant differences in TFV-DP levels between the CKM, CKB, or CKMT1 catalyzed reactions | no significant differences in TFV-DP levels between the CKM, CKB, or CKMT1 catalyzed reactions
